# Measurements as given in US10555687B2, “Apparatus and method for physiologic and pharmacodynamic assessment and monitoring” (priority 2015, dated 2020).
# Test system: Aβ fiber
# Experiment: PRD pharmacological assessment of sciatic nerve pain
# Type: in vivo, human
# Description: According to one embodiment, the neuro-stimulator can be integrated with a smartphone, thereby allowing for the detection of mechanism specific nociception via recording and parameterization of the PRD under a multitude of conditions. Parameterization of the PRD curve includes two static measures: a pupillary baseline and peak dilation diameters (dilation amplitude or DA), and at least three dynamic measures: slopes of the ascending and descending portions of the PRD curve representing the dilation velocity (DV) and recovery velocity, as well as the duration of the reflex, and the area under the curve representing pain sensitivity/intensity.
# By one embodiment, large-fiber neuropathic pain is transmitted via Aβ nerve fiber type, which is stimulated at 2000 Hz. Neuropathic pain is detected and measured by examining the relationship of the parameters of the PRD to a 2000 Hz stimulus. Small fiber neuropathic pain is transmitted via C-fiber and Aδ fibers, and is often seen with metabolic disorders such as diabetes or chemotherapy induced neuropathic pain. The neuropathic pain index (NPI) integrates the intensity stimulus (mA) relative to the DV, DA, AUC and recovery time. Accordingly, neuropathic pain can be defined with respect to whether the pain is a small fiber based pain or a large fiber based pain. Moreover the NPI provisions for flexibility of monitoring an intervention. […]
compound,measurement,setting,value
NCC1(CC(=O)O)CCCCC1 [Gabapentin],pain sensitivity (PRD) in sciatic nerve pain,"compression of the Aβ fiber, large fiber neuropathic pain (FIG. 8B)",diminishes the pain sensitivity
same,area under the PRD curve compared with opioid intervention,sciatic nerve pain (FIG. 8B),substantially smaller
